This is an account of results in patent US7723523B2, “Tetrahydropyridothiophenes” (4SC AG, priority 2004, dated 2010).

pIC50: −log10 of the molar value.

The test system of experiment [1] is RKO (RKOp27) human colon adenocarcinoma cells. The experiment is described as follows: Alamar Blue cell viability assay, anti-proliferative/cytotoxic activity on proliferating RKOp27 cells. In kind it is cell-based. The conditions noted are these: absence of Ponasterone A, 72 hours incubation, read-out: IC50 RKO p27 proliferating. Summed up: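 IC50 values come from concentration-effect curves of Alamar Blue fluorescence (544/590 nm), relative to untreated controls set at 100%. Cells were RKOp27, seeded at 4000/well in DMEM with 10% FCS and exposed from 24 h post-seeding for 72 h (37 °C, 5% CO2) to semi-log dilutions, each run in quadruplicate.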

In experiment [2] the test system is RKO colon adenocarcinoma cells (RKOp27) arrested by expression of ectopic p27Kip1. In words: Alamar Blue cell viability assay on RKOp27 cells arrested by Ponasterone A-induced p27Kip1 (cell cycle specific mode of action). The experiment is classed as cell-based. The conditions noted are these: Homo sapiens, RKOp27, 72 h, cells arrested by p27Kip1 induced with 10 μM Ponasterone A, 72 hours incubation, read-out: IC50 RKO p27 arrested. Summed up:
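Viability measured by Alamar Blue fluorescence (ex 544, em 590 nm) after 72 h, 37 °C compound exposure in quadruplicate, normalized to untreated cells as 100%. Cells were p27Kip1-arrested RKOp27, induced with 10 μM Ponasterone A at seeding; compound added 24 h later.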

Take `CCOC(=O)N1CCc2c(sc(NC(=O)/C=C/c3ccc(Cl)cc3F)c2C#N)C1` [Example 59, 2-[(E)-3-(4-Chloro-2-fluoro-phenyl)-allanoylamino]-3-cyano-4,7-dihydro-5H-thieno[2,3-c]pyridine-6-carboxylic acid ethyl ester]: the pIC50 in experiment [1] is at least 5.70; in experiment [2], at most 4.00.

Regarding `CCOc1ccccc1/C=C/C(=O)Nc1sc2c(c1C#N)CCN(C(=O)CCc1ccccn1)C2` [Example 222, (E)-N-[3-Cyano-6-(3-pyridin-2-yl-propanoyl)-4,5,6,7-tetrahydro-thieno[2,3-c]pyridin-2-yl]-3-(2-ethoxy-phenyl)-acrylamide], the negative logarithm of the IC50 (pIC50) in experiment [1] was at least 6.30; in experiment [2], at most 4.30.

On to `CCNC(=O)N1CCc2c(sc(NC(=O)/C=C/c3ccccc3)c2C#N)C1` [Example 37, 3-Cyano-2-((E)-phenyl-allanoylamino)-4,7-dihydro-5H-thieno[2,3-c]pyridine-6-carboxylic acid ethylamide], for which the pIC50 in experiment [1] was at least 5.70; in experiment [2], under 4.00.

Take `CCOC(=O)N1CCc2c(sc(NC(=O)/C=C/c3cccc(Cl)c3F)c2C#N)C1` [Example 61, 3-Cyano-2-[(E)-3-(3-chloro-2-fluoro-phenyl)-allanoylamino]-4,7-dihydro-5H-thieno[2,3-c]pyridine-6-carboxylic acid ethyl ester]: the pIC50 in experiment [1] was at least 5.70; in experiment [2] it was at most 4.00.

Take `CCOC(=O)COC(=O)N1CCc2c(sc(NC(=O)/C=C/c3cccnc3)c2C#N)C1` [Example 161, 3-Cyano-2-((E)-3-pyridin-3-yl-allanoylamino)-4,7-dihydro-5H-thieno[2,3-c]pyridine-6-carboxylic acid ethoxycarbonylmethyl ester]: the negative-log IC50 (pIC50) in experiment [1] was at least 5.70; in experiment [2] it was at most 4.00.

For `CCOc1ccccc1/C=C/C(=O)Nc1sc2c(c1C#N)CCN(C(=O)OCc1cccnc1)C2` [Example 237, 3-Cyano-2-[(E)-3-(2-ethoxy-phenyl)-allanoylamino]-4,7-dihydro-5H-thieno[2,3-c]pyridine-6-carboxylic acid pyridin-3-ylmethyl ester], the pIC50 is at least 5.70 in experiment [1] and at most 4.00 in experiment [2].

Turning to `CCOC(=O)N1CCc2c(sc(NC(=O)/C=C/c3cccc(F)c3)c2C#N)C1` [Example 21, 3-Cyano-2-[(E)-3-(3-fluoro-phenyl)-allanoylamino]-4,7-dihydro-5H-thieno[2,3-c]pyridine-6-carboxylic acid ethyl ester], the negative logarithm of the IC50 (pIC50) in experiment [1] is at least 5.70; in experiment [2], under 4.00.

Regarding `CCSC(=O)N1CCc2c(sc(NC(=O)/C=C/c3ccccc3Cl)c2C#N)C1` [Example 48, 2-[(E)-3-(2-Chloro-phenyl)-allanoylamino]-3-cyano-4,7-dihydro-5H-thieno[2,3-c]pyridine-6-carbothioic acid S-ethyl ester], the pIC50 in experiment [1] is at least 5.70; in experiment [2] it was at most 4.00.

Regarding `N#Cc1c(NC(=O)/C=C/c2ccccc2)sc2c1CCN(C(=O)CCCn1ccnc1)C2` [Example 190, (E)-N-[3-Cyano-6-(4-imidazol-1-yl-butanoyl)-4,5,6,7-tetrahydro-thieno[2,3-c]pyridin-2-yl]-3-phenyl-acrylamide], the pIC50 in experiment [1] is at least 5.70; in experiment [2] it was at most 4.00.

As for `CCOC(=O)N1CCc2c(sc(NC(=O)/C=C/c3cccc4c3OCO4)c2C#N)C1` [Example 111, 2-((E)-3-Benzo[1,3]dioxol-4-yl-allanoylamino)-3-cyano-4,7-dihydro-5H-thieno[2,3-c]pyridine-6-carboxylic acid ethyl ester], the pIC50 in experiment [1] was at least 5.70; in experiment [2] it was at most 4.00.

On to `N#Cc1c(NC(=O)/C=C/c2cccnc2)sc2c1CCN(C(=O)OCCOCc1ccccc1)C2` [Example 166, 3-Cyano-2-((E)-3-pyridin-3-yl-allanoylamino)-4,7-dihydro-5H-thieno[2,3-c]pyridine-6-carboxylic acid 2-benzyloxy-ethyl ester], for which the pIC50 was at least 5.70 in experiment [1] and at most 4.00 in experiment [2].

With `CCOC(=O)N1CCc2c(sc(NC(=O)/C=C/c3ccccc3O)c2C#N)C1` [Example 95, 3-Cyano-2-[(E)-3-(2-hydroxy-phenyl)-allanoylamino]-4,7-dihydro-5H-thieno[2,3-c]pyridine-6-carboxylic acid ethyl ester], the pIC50 in experiment [1] was at least 5.70; in experiment [2], at most 4.00.

As for `N#Cc1c(NC(=O)/C=C/c2ccccc2)sc2c1CCN(C(=O)OCCc1ccccn1)C2` [Example 116, 3-Cyano-2-((E)-3-phenyl-allanoylamino)-4,7-dihydro-5H-thieno[2,3-c]pyridine-6-carboxylic acid 2-pyridin-2-yl-ethyl ester], the pIC50 in experiment [1] is at least 5.70; in experiment [2], at most 4.00.

For the compound `COc1cccc(OC(=O)N2CCc3c(sc(NC(=O)/C=C/c4cccnc4)c3C#N)C2)c1` [Example 45, 3-Cyano-2-((E)-3-pyridin-3-yl-allanoylamino)-4,7-dihydro-5H-thieno[2,3-c]pyridine-6-carboxylic acid 3-methoxy-phenyl ester], the negative logarithm of the IC50 (pIC50) was at least 5.70 in experiment [1] and under 4.00 in experiment [2].

Regarding `CCOc1ccccc1/C=C/C(=O)Nc1sc2c(c1C#N)CCN(C(=O)OC(C)(C)C)C2` [Example 54, 3-Cyano-2-[(E)-3-(2-ethoxy-phenyl)-allanoylamino]-4,7-dihydro-5H-thieno[2,3-c]pyridine-6-carboxylic acid tert-butyl ester], the pIC50 in experiment [1] was at least 6.30; in experiment [2], at most 4.30.

Turning to `CCOC(=O)N1CCc2c(sc(NC(=O)/C=C/c3ccc(C)o3)c2C#N)C1` [Example 74, 3-Cyano-2-[(E)-3-(5-methyl-furan-2-yl)-allanoylamino]-4,7-dihydro-5H-thieno[2,3-c]pyridin-6-carboxylic acid ethyl ester], the pIC50 in experiment [1] is at least 5.70; in experiment [2], at most 4.00.

As for `N#Cc1c(NC(=O)/C=C/c2ccccc2)sc2c1CCN(C(=O)CCCc1c[nH]c3ccccc13)C2` [Example 172, (E)-N-[3-Cyano-6-(4-1H-indol-3-yl-butanoyl)-4,5,6,7-tetrahydro-thieno[2,3-c]pyridin-2-yl]-3-phenyl-acrylamide], the pIC50 in experiment [1] was at least 5.70; in experiment [2], at most 4.00.

Take `N#Cc1c(NC(=O)/C=C/c2ccccc2)sc2c1CCN(C(=O)OCCCN1CCOCC1)C2` [Example 120, 3-Cyano-2-((E)-3-phenyl-allanoylamino)-4,7-dihydro-5H-thieno[2,3-c]pyridine-6-carboxylic acid 3-morpholin-4-yl-propyl ester]: the pIC50 was at least 5.70 in experiment [1] and at most 4.00 in experiment [2].

Consider `CCOC(=O)N1CCc2c(sc(NC(=O)/C=C/c3ccco3)c2C#N)C1` [Example 10, 3-Cyano-2-((E)-3-furan-2-yl-allanoylamino)-4,7-dihydro-5H-thieno[2,3-c]pyridine-6-carboxylic acid ethyl ester], for which the pIC50 was at least 5.70 in experiment [1] and under 4.00 in experiment [2].

For `CCOC(=O)N1CCc2c(sc(NC(=O)/C=C/c3ccccc3N3CCOCC3)c2C#N)C1` [Example 88, 3-Cyano-2-[(E)-3-(2-morpholin-4-yl-phenyl)-allanoylamino]-4,7-dihydro-5H-thieno[2,3-c]pyridine-6-carboxylic acid ethyl ester], the pIC50 is at least 6.30 in experiment [1] and at most 4.30 in experiment [2].

Take `CCOC(=O)N1CCc2c(sc(NC(=O)/C=C/c3ccc(C)s3)c2C#N)C1` [Example 76, 3-Cyano-2-[(E)-3-(5-methyl-thiophen-2-yl)-allanoylamino]-4,7-dihydro-5H-thieno[2,3-c]pyridine-6-carboxylic acid ethyl ester]: the figures for the pIC50 in experiment [1] and in experiment [2] were at least 5.70 and at most 4.00, respectively.

For `CCOC(=O)N1CCc2c(sc(NC(=O)/C=C/c3ccccc3OCC)c2C#N)C1` [Example 62, 3-Cyano-2-[(E)-3-(2-ethoxy-phenyl)-allanoylamino]-4,7-dihydro-5H-thieno[2,3-c]pyridine-6-carboxylic acid ethyl ester], the pIC50 in experiment [1] was at least 5.70; in experiment [2], at most 4.00.

As to `COC(=O)N1CCc2c(sc(NC(=O)/C=C/c3cccnc3)c2C#N)C1` [Example 44, 3-Cyano-2-((E)-3-pyridin-3-yl-allanoylamino)-4,7-dihydro-5H-thieno[2,3-c]pyridine-6-carboxylic acid methyl ester], the pIC50 in experiment [1] is at least 5.70; in experiment [2] it was under 4.00.

In the case of `CCOC(=O)N1CCc2c(sc(NC(=O)/C=C/c3ccc(OCC)cc3)c2C#N)C1` [Example 60, 3-Cyano-2-[(E)-3-(4-ethoxy-phenyl)-allanoylamino]-4,7-dihydro-5H-thieno[2,3-c]pyridine-6-carboxylic acid ethyl ester], the pIC50 in experiment [1] was at least 5.70; in experiment [2], at most 4.00.

For the compound `CCOc1ccccc1/C=C/C(=O)Nc1sc2c(c1C#N)CCN(C(=O)COC)C2` [Example 223, (E)-N-[3-Cyano-6-(2-methoxy-ethanoyl)-4,5,6,7-tetrahydro-thieno[2,3-c]pyridin-2-yl]-3-(2-ethoxy-phenyl)-acrylamide], the pIC50 in experiment [1] was at least 5.70; in experiment [2], at most 4.00.

`CCOC(=O)N1CCc2c(sc(NC(=O)/C=C/c3ccccn3)c2C#N)C1` [Example 100, 3-Cyano-2-((E)-3-pyridin-2-yl-allanoylamino)-4,7-dihydro-5H-thieno[2,3-c]pyridine-6-carboxylic acid ethyl ester]: the negative-log IC50 (pIC50) in experiment [1] was at least 5.70; in experiment [2], at most 4.00.

As for `CCOC(=O)N1CCc2c(sc(NC(=O)/C=C/c3cccc(F)c3C)c2C#N)C1` [Example 80, 3-Cyano-2-[(E)-3-(3-fluoro-2-methyl-phenyl)-allanoylamino]-4,7-dihydro-5H-thieno[2,3-c]pyridine-6-carboxylic acid ethyl ester], the pIC50 in experiment [1] was at least 5.70; in experiment [2] it was at most 4.00.
